Data taken from patent US20160045505A1, “COMPOUNDS AND COMPOSITIONS FOR THE TREATMENT OF PARASITIC DISEASES” (NOVARTIS AG, priority 2013, published 2016).
pEC50: −log10 of the molar value. Like-named read-outs stand apart in the source and are kept apart here.

Columns and labels:
[1] = system: Trypanosoma cruzi amastigotes (Tulahuen strain expressing Lac-Z) cultured in 3T3 fibroblast cells; test: microbe, parasite or virus in culture; type: cell-based; settings: Trypanosoma cruzi, TULAHUEN, Fibroblast, T. cruzi amastigotes in 3T3 fibroblast cells; read-out: T cruzi EC50
[2] = system: Leishmania donovani axenic amastigote parasites; test: Leishmania donovani axenic amastigote proliferation assay (Cell TiterGlo luminescence, 2 day incubation); type: cell-based; settings: Leishmania donovani, L. donovani axenic amastigotes; read-out: L. donovani amastigotes EC50
[3] = system: L. donovani HU3 strain in mouse peritoneal macrophages; test: Assay for proliferation of Leishmania parasites in infected mouse peritoneal macrophages (SybrGreen staining, high-content imaging, 5 days); type: cell-based, Leishmania donovani; settings: Leishmania donovani, Peritoneal macrophage, L. donovani in mouse peritoneal macrophages; read-out: L. donovani Macrophage EC50
[4] = system: Trypanosoma brucei Lister 427 strain, bloodstream form; test: Assay for proliferation of kinetoplastid parasite Trypanosoma brucei (Cell Titer Glo, 48 hours); type: cell-based; settings: Trypanosoma brucei; for pEC50: T. brucei Lister 427 bloodstream form, read-out: T. brucei EC50
Procedure, shortened: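 Bloodstream-form T. brucei Lister 427 in HMI-9 medium was exposed to compound (DMSO vehicle) for 48 hours at 37° C, 5% CO2. Parasite growth was read as ATP by CellTiter-Glo luminescence, with EC50 calculated from percent inhibition.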

SMILES	pEC50 [1]	pEC50 [2]	pEC50 [3]	pEC50 [4]	EC50 ([4]; read-out: T. brucei EC50 (μM)) [µM]
Cc1nc(C)c(C(=O)Nc2ccc(F)c(-c3cn4cc(N5CCCC5)cnc4n3)c2)o1 [Compound 493]	7.51	6.59	6.72	7.40	–
Cc1nc(C)c(C(=O)Nc2ccc(F)c(-c3cn4cc(NC5CC5)cnc4n3)c2)o1 [Compound 494]	5.89	5.45	5.39	6.00	–
O=C(Nc1ccc(Cl)c(-c2cn3cc(N4CCCC4)cnc3n2)c1)N1CCCC1 [Compound 495]	7.26	6.63	6.63	7.44	–
CC(C)OC(=O)Nc1cnc2nc(-c3cc(Nc4nccc5ccoc45)ccc3F)cn2c1 [Compound 497]	6.95	6.19	5.89	6.30	–
COc1cccnc1Nc1ccc(F)c(-c2cn3cc(NC(=O)OC(C)C)cnc3n2)c1 [Compound 498]	5.87	6.07	4.55	6.32	–
CC(C)OC(=O)Nc1cnc2nc(-c3cc(NC4=NCCO4)ccc3F)cn2c1 [Compound 499]	5.03	< 4.60	5.08	5.33	–
CC(C)OC(=O)Nc1cnc2nc(-c3cc(NC4=NC(C)(C)CO4)ccc3F)cn2c1 [Compound 500]	< 4.70	< 4.60	< 4.76	< 4.30	–
CC(C)OC(=O)Nc1cnc2nc(-c3cc(NC4=NCC(C)O4)ccc3F)cn2c1 (stereo not drawn) [Compound 501]	4.98	< 4.60	< 4.30	5.50	–
CC1COC(Nc2ccc(F)c(-c3cn4cc(NC(=O)OC(C)C)cnc4n3)c2)=N1 (stereo not drawn) [Compound 502]	4.96	< 4.60	4.80	5.17	–
CC(C)OC(=O)Nc1cnc2nc(-c3cc(NC4=NCC(C)(C)O4)ccc3F)cn2c1 [Compound 503]	< 4.70	< 4.60	4.57	4.44	–
Cc1nc(C)c(C(=O)Nc2ccc(F)c(-c3cn4cc(NC5=NCC(C)O5)cnc4n3)c2)o1 (stereo not drawn) [Compound 504]	4.97	5.53	5.26	6.01	–
Cc1nc(C)c(C(=O)Nc2ccc(F)c(-c3cn4cc(NC5=NC(C)(C)CO5)cnc4n3)c2)o1 [Compound 505]	5.30	5.93	5.46	6.07	–
Cc1nc(C)c(C(=O)Nc2ccc(F)c(-c3cn4cc(NC5=NCC(C)(C)O5)cnc4n3)c2)o1 [Compound 507]	5.00	5.73	5.24	5.90	–
Cc1nc(C)c(C(=O)Nc2ccc(F)c(-c3cn4cc(NC5=NCC(C(F)(F)F)O5)cnc4n3)c2)o1 (stereo not drawn) [Compound 508]	4.94	5.77	5.08	5.36	–
Cc1nc(C)c(C(=O)Nc2ccc(F)c(-c3cn4cc(NC5=NCC(C)(C)N5)cnc4n3)c2)o1 [Compound 509]	< 4.70	< 4.60	< 4.30	4.99	–
Cc1nc(C)c(C(=O)Nc2ccc(F)c(-c3cn4cc(NC5=N[C@H]6CCCC[C@@H]6O5)cnc4n3)c2)o1 [Compound 510]	5.58	5.80	5.09	5.40	–
Cc1nc(C)c(C(=O)Nc2ccc(F)c(-c3cn4cc(NC5=N[C@@H]6CCC[C@H]6O5)cnc4n3)c2)o1 [Compound 511]	5.43	5.81	5.64	6.23	–
Cc1nc(C)c(C(=O)Nc2ccc(F)c(-c3cn4cc(NC(=O)OCCCCl)cnc4n3)c2)o1 [Compound 519]	5.49	6.61	5.79	6.44	–
Cc1nc(C)c(C(=O)Nc2ccc(F)c(-c3cn4cc(NC5=NC(C)CO5)cnc4n3)c2)o1 (stereo not drawn) [Compound 524]	4.90	5.45	5.02	6.00	–
Cc1nnc(C(=O)Nc2cccc(-c3cn4cc(NC(=O)OC(C)C)cnc4n3)c2)o1 [Compound 526, isopropyl (2-(3-(5-methyl-1,3,4-oxadiazole-2-carboxamido)phenyl)imidazo[1,2-a]pyrimidin-6-yl)carbamate]	< 4.70	< 4.60	< 4.30	< 4.30	–
Cc1nnc(C(=O)Nc2ccc(Cl)c(-c3cn4cc(NC(=O)OC(C)C)cnc4n3)c2)o1 [Compound 527]	< 4.70	< 4.60	5.24	< 4.30	–
Cc1nc(C(=O)Nc2ccc(Cl)c(-c3cn4cc(NC(=O)OC(C)C)cnc4n3)c2)no1 [Compound 528]	< 4.70	< 4.60	5.05	5.16	–
CC(C)OC(=O)Nc1cnc2nc(-c3cc(N4C(=O)c5ccccc5C4=O)ccc3Cl)cn2c1 [Compound 530, isopropyl (2-(2-chloro-5-(1,3-dioxoisoindolin-2-yl)phenyl)imidazo[1,2-a]pyrimidin-6-yl)carbamate]	< 4.70	< 4.88	< 4.30	–	> 50
CC(C)OC(=O)Nc1cnc2nc(-c3cc(-n4cn[nH]c4=O)ccc3Cl)cn2c1 [Compound 535]	< 4.70	< 4.60	< 4.45	4.51	–
C=C(C)c1cnc2nc(-c3cc(NC(=O)c4oc(C)nc4C)ccc3F)cn2c1 [Compound 537, N-(4-fluoro-3-(6-(prop-1-en-2-yl)imidazo[1,2-a]pyrimidin-2-yl)phenyl)-2,4-dimethyloxazole-5-carboxamide]	6.99	6.91	6.54	6.79	–
Cc1nc(C)c(C(=O)Nc2ccc(F)c(-c3cn4cc(C5CCNCC5)cnc4n3)c2)o1 [Compound 538, N-(4-fluoro-3-(6-(piperidin-4-yl)imidazo[1,2-a]pyrimidin-2-yl)phenyl)-2,4-dimethyloxazole-5-carboxamide]	6.35	5.63	5.73	6.21	–
Cc1nc(C)c(C(=O)Nc2ccc(F)c(-c3cn4cc(C#CCCO)cnc4n3)c2)o1 [Compound 543, N-(4-fluoro-3-(6-(4-hydroxybut-1-yn-1-yl)imidazo[1,2-a]pyrimidin-2-yl)phenyl)-2,4-dimethyloxazole-5-carboxamide]	6.05	6.67	6.12	6.87	–
Cc1nc(C)c(C(=O)Nc2ccc(F)c(-c3cn4cc(C#CCCN5CCOCC5)cnc4n3)c2)o1 [Compound 544, N-(4-fluoro-3-(6-(4-morpholinobut-1-yn-1-yl)imidazo[1,2-a]pyrimidin-2-yl)phenyl)-2,4-dimethyloxazole-5-carboxamide]	5.40	5.39	4.72	< 4.30	–
Cc1nc(C)c(C(=O)Nc2ccc(F)c(-c3cn4cc(C#CCCN5CCCC(O)C5)cnc4n3)c2)o1 (stereo not drawn) [Compound 545]	5.14	5.41	5.67	5.49	–
Cc1nc(C)c(C(=O)Nc2ccc(F)c(-c3cn4cc(C#CCCN5CCN(C)CC5)cnc4n3)c2)o1 [Compound 546]	5.41	5.25	4.52	5.50	–
